Values joined by “and” are separate entries in the source; they are usually repeats but may differ in a detail not shown here. Equal entries are not always repeated. Where two headings read alike, the source gives them in different places.
How the values were obtained:
[1] = molecular target: T1, HIV-1 protease (Human immunodeficiency virus type 1 group M subtype B, UniProt P04585); experiment: biochemical
Method: The HIV protease screening assay is based on fluorescently labeled substrate which can be resolved from nonlabeled cleavage product using special beads coated with streptavidin. The substrate is biotinylated at the amino terminal arginine and fluorescently labeled with fluorescein isothiocynate (FITC) at the carboxyl terminal lysine. […] Substrate ([…] of 0.2 μM), sample (10 μl of desired concentraion), and enzyme (10 μl of 0.1 μM) are added to a 96 well pandex plate. The assay is run in 0.1 M sodium acetate buffer at pH 5.5 in the presence of 1.0 M sodium chloride and 0.05% NP-40 with incubated in the dark for one hour at room temperature. Strepavidin coated polystyrene beads {40 μl of 0.1% (w/v)} are added and the plate is incubated in the dark for an additional half hour. The labeled cleavage product is separated from the unreacted substrate via filtration and is read on the Idexx screen machine. The data are analyzed by appropriate computer algorithms to ascertain percent inhibition values.
Determination of Ki values utilizes the same materials and equipment employed for percent inhibition studies. Two-fold serial dilutions are made for a given inhibitor from 2, 3 or 4 starting concentrations with a total of 24, 36 or 48 individual inhibitor concentrations. These dilutions are performed utilizing the BioMek robotics system. The assay consists of 10 μL of 40 nM HIV-1 protease, 10 μL of the various inhibitor concentrations, and 20 μL of 200 μM substrate (40 μL total). The reaction is allowed to proceed for 90 min at room temperature, terminated with 40 μL of avidin beads and processed (supra vide). An inhibitor with a known K; is run in parallel to verify the validity of the assay. The data is processed utilizing a computer program employing a nonlinear least square analysis of the data to generate the Ki values.

[2] = molecular target: T1, HIV-1 protease; experiment: biochemical; remark: listed apart in the source
Method: The HIV protease screening assay is based on fluorescently labeled substrate which can be resolved from nonlabeled cleavage product using special beads coated with streptavidin. The substrate is biotinylated at the amino terminal arginine and fluorescently labeled with fluorescein isothiocynate (FITC) at the carboxyl terminal lysine. This assay has been employed to detect novel, nonpeptidic inhibitors of HIV-1 protease. Substrate (20 μM of 0.2 μM), sample (10 μl of desired concentraion), and enzyme (10 μl of 0.1 μM) are added to a 96 well pandex plate. The assay is run in 0.1 M sodium acetate buffer at pH 5.5 in the presence of 1.0 M sodium chloride and 0.05% NP-40 with incubated in the dark for one hour at room temperature. Strepavidin coated polystyrene beads {40 μl of 0.1% (w/v)} are added and the plate is incubated in the dark for an additional half hour. The labeled cleavage product is separated from the unreacted substrate via filtration and is read on the Idexx screen machine. The data are analyzed by appropriate computer algorithms to ascertain percent inhibition values.

[3] = read-out: HIV Protease FITC Assay Ki
[4] = Table I, read-out: HIV Protease FITC Assay Ki
[5] = Table I, Dose 0.123 μM, read-out: Protease % Inhib
[6] = Table I, Dose 0.370 μM, read-out: Protease % Inhib
[7] = Table I, Dose 1.100 μM, read-out: Protease % Inhib
[8] = Table I, Dose 3.300 μM, read-out: Protease % Inhib
[9] = Table I, Dose 10.000 μM, read-out: Protease % Inhib
[10] = Table I, Dose 30.000 μM, read-out: Protease % Inhib

SMILES | Ki [1, 4] | inhibition at 0.123 µM [2, 5] [%] | inhibition at 0.37 µM [2, 6] [%] | inhibition at 1.1 µM [2, 7] [%] | inhibition at 3.3 µM [2, 8] [%] | inhibition at 10 µM [2, 9] [%] | inhibition at 30 µM [2, 10] [%] | further results
O=c1oc(C(CC2CC2)CC2CC2)cc(O)c1C(c1cccc(NS(=O)(=O)c2ccc(F)cc2)c1)C1CC1 (centres unmarked) [Example 94, N-(3-{Cyclopropyl-[6-(2-cyclopropyl-1-cyclopropylmethyl-ethyl)-4-hydroxy-2-oxo-2H-pyran-3-yl]-methyl}-phenyl)-4-fluoro-benzenesulfonamide] | – | – | – | – | – | – | – | Ki [1, 3]: 16.4 nM; inhibition at 0.123 µM ([2]; read-out: Protease % Inhib): 75.8%; inhibition at 0.37 µM ([2]; read-out: Protease % Inhib): 107%; inhibition at 1.1 µM ([2]; read-out: Protease % Inhib): 107%; inhibition at 3.3 µM ([2]; read-out: Protease % Inhib): 105%; inhibition at 10 µM ([2]; read-out: Protease % Inhib): 109%; inhibition at 30 µM ([2]; read-out: Protease % Inhib): 111%
CCCC1(CCC)CC(O)=C(C(c2cccc(NS(=O)(=O)c3cn(C)cn3)c2)C2CC2)C(=O)O1 (centres unmarked) [Example 48] | 0.52 nM | 111 | 104 | 110 | 89.3 | 111 | 105 | –
CC(C)CC(c1cccc(NS(=O)(=O)c2cn(C)cn2)c1)c1c(O)c2c(oc1=O)CCCCCC2 (single isomer, unassigned) [Example 9, (R or S)-N-[3-1-(5,6,7,8,9,10-Hexahydro-4-hydroxy-2-oxo-2H-cycloocta[b]pyran-3-yl)-3-methylbutyl]phenyl]-1-methyl-1H-imidazole-4-sulfonamide] | 0.42 nM | 99.1 | 104 | 105 | 105 | 107 | 108 | –
CCC(CC1CCOCC1)c1cc(O)c(C(c2cccc(NS(=O)(=O)c3nccn3C)c2)C2CC2)c(=O)o1 (centres unmarked) [Example 145, N-(3-{Cyclopropyl-[6-(1-(tetrahydropyran-4-ylmethyl)-propyl)-4-hydroxy-2-oxo-2H-pyran-3-yl]-methyl}-phenyl)-1-methyl-1H-imidazole-2-sulfonamide] | 0.49 nM | 73.6 | 89.8 | 99.7 | 94.8 | 96.8 | 88 | –
CCCC1(CCC)CC(O)=C(C(CC)c2cccc(NS(=O)(=O)c3cccc4cccnc34)c2)C(=O)O1 (single isomer, unassigned) [Example 54, (S or R)-N-[3-[1-(4-Hydroxy-2-oxo-6,6-dipropyl-5,6-dihydro-2H-pyran-3-yl)-propyl]-phenyl]-8-quinolinesulfonamide] | 13.3 nM | – | – | – | – | – | – | PROTEASE % INHIB. ([2]; Table I, Dose 0.123 μM): 46.64%; PROTEASE % INHIB. ([2]; Table I, Dose 0.370 μM): 72.41%; PROTEASE % INHIB. ([2]; Table I, Dose 1.100 μM): 87.91%; PROTEASE % INHIB. ([2]; Table I, Dose 3.300 μM): 89.11%; PROTEASE % INHIB. ([2]; Table I, Dose 10.000 μM): 87.77%; PROTEASE % INHIB. ([2]; Table I, Dose 30.000 μM): 91.99%
CCCC1(CCc2ccccc2)CC(O)=C(C(CC)c2cccc(NS(=O)(=O)c3ccc(C#N)cc3)c2)C(=O)O1 (centres unmarked) [Example 40, 4-Cyano-N-[3-[1-(4-hydroxy-2-oxo-6-phenethyl-6-propyl-5,6-dihydro-2H-pyran-3-yl)-propyl]-phenyl]-benzenesulfonamide] | 10.8 nM | 59.6 | 102 | 98.7 | 105 | 88.7 | 72.7 | –
CC(C)(C)C(C1=C(O)CC(CCc2ccccc2)(CCc2ccccc2)OC1=O)c1cccc(NS(=O)(=O)c2ccc(C#N)cn2)c1 (centres unmarked) [Example 344, N-[3-{1-(4-Hydroxy-5,6-dihydro-2-oxo-6,6-bis(2-phenylethyl)-2H-pyran-3-yl)-2,2-dimethylpropyl}phenyl]-5-cyanopyridine-2-sulfonamide] | – | – | – | – | – | – | – | Ki ([1]; Table II, enzyme HIV-1, read-out: FITC KI): 5.9 nM; PROTEASE % INHIB. ([2]; Table II, enzyme HIV-1, DOSE 0.123 (unit not given)): 47.37%; PROTEASE % INHIB. ([2]; Table II, enzyme HIV-1, DOSE 0.370 (unit not given)): 72.84%; PROTEASE % INHIB. ([2]; Table II, enzyme HIV-1, DOSE 1.100 (unit not given)): 81.17%; PROTEASE % INHIB. ([2]; Table II, enzyme HIV-1, DOSE 3.300 (unit not given)): 83.08%; PROTEASE % INHIB. ([2]; Table II, enzyme HIV-1, DOSE 10.000 (unit not given)): 68.47%; PROTEASE % INHIB. ([2]; Table II, enzyme HIV-1, DOSE 30.000 (unit not given)): 46.24%
CCC(C1=C(O)CC(CC(C)C)(CC(C)C)OC1=O)c1cccc(NS(=O)(=O)c2cn(C)cn2)c1 (centres unmarked) [Example 47, N-[3-[1-(4-hydroxy-6,6-diisobutyl-2-oxo-5,6-dihydro-2H-pyran-3-yl)-propyl]-phenyl]-1-methyl-1H-imidazole-4-sulfonamide] | 3 nM and 2.98 nM | 66.3 | – | 94.7 | 101 | 98.7 | 84.5 | inhibition at 0.87 µM ([2]; Table I, Dose 0.870 μM, read-out: Protease % Inhib): 86.8%
CN(c1cccc(C(c2c(O)c3c(oc2=O)CCCCCC3)C2CC2)c1)S(=O)(=O)c1ccc(F)cc1 (centres unmarked) [Example 193, 4-Fluoro-N-methyl-N-[3-[cyclopropyl(5,6,7,8,9,10-hexahydro-4-hydroxy-2-oxo-2H-cycloocta[b]pyran-3-yl)methyl]phenyl]-benzenesulfonamide] | 35 nM | 18.4 | 40.3 | 77.7 | 98.1 | 108 | 103 | –
CC[C@H](Cc1ccccc1)c1cc(O)c(C(c2cccc(NS(=O)(=O)c3ncc[nH]3)c2)C2CC2)c(=O)o1 (stereo partly drawn) [Example 147, N-(3-{Cyclopropyl-[6-(1-(R)-ethylphenethyl)-4-hydroxy-2-oxo-2H-pyran-3-yl]-methyl}-phenyl)-1H-imidazole-2-sulfonamide] | – | 77.5 | 103 | 112 | 110 | 114 | 108 | Ki [1, 3]: 1 nM
CC[C@H](Cc1ccccc1)c1cc(O)c(C(c2cccc(NS(=O)(=O)c3nccn3C)c2)C2CC2)c(=O)o1 (single isomer, unassigned) [Example 144, N-(3-(R or S)-{Cyclopropyl-[6-(1-(R)-ethylphenethyl)-4-hydroxy-2-oxo-2H-pyran-3-yl]-methyl}-phenyl)-1-methyl-1H-imidazole-2-sulfonamide] | 1.2 nM | – | – | – | – | – | – | PROTEASE % INHIB. ([2]; Table I, Dose 0.123 μM): 80.58%; PROTEASE % INHIB. ([2]; Table I, Dose 0.370 μM): 87.39%; PROTEASE % INHIB. ([2]; Table I, Dose 1.100 μM): 93.82%; PROTEASE % INHIB. ([2]; Table I, Dose 3.300 μM): 100.01%; PROTEASE % INHIB. ([2]; Table I, Dose 10.000 μM): 98.12%; PROTEASE % INHIB. ([2]; Table I, Dose 30.000 μM): 95.88%

From patent US6169181A, “Compounds useful to treat retroviral infections” (Pharmacia & Upjohn Company, priority 1998, dated 2001)
